Test [1] has as its system neural progenitor cells (NPCs). Kind of test: NPCs co-cultured with microglia pre-activated by aggregated Aβ and cytokines (β-III-tubulin). In kind it is cell-based, mouse. The note with it: 10 days co-culture; Aβ 5 μM, IFN-γ 10 ng/ml. The protocol: (xlvi) Reagents. Recombinant mouse IFN-γ and IL-4 (both containing endotoxin at a concentration below 0.1 ng/μg cytokine) were obtained from R&D Systems (Minneapolis, Minn.). β-amyloid peptides [amyloid protein fragment 1-40 and 1-42 (Aβ1-40/1-42)] were purchased from Sigma-Aldrich, St. Louis, Mo. The Aβ peptides were dissolved in endotoxin-free water, and Aβ aggregates were formed by incubation of Aβ, as described (Ishii et al., 2000).
(li) Neural progenitor cell culture. Coronal sections (2 mm thick) of tissue containing the subventricular zone of the lateral ventricle were obtained from the brains of adult C57B1/6J mice. The tissue was minced and then incubated for digestion at 37° C., 5% CO2 for 45 min in Earle's balanced salt solution containing 0.94 mg/ml papain (Worthington, Lakewood, N.J.) and 0.18 mg/ml of L-cysteine and EDTA. After centrifugation at 110×g for 15 min at room temperature, the tissue was mechanically dissociated by pipette trituration. Cells obtained from single-cell suspensions were plated (3500 cells/cm^2) in 75-cm^2 Falcon tissue-culture flasks (BD Biosciences, San Diego, Calif.), in NPC-culturing medium [Dulbecco's modified Eagles's medium (DMEM)/F12 medium (Gibco/Invitrogen, Carlsbad, Calif.) containing 2 mM L-glutamine, 0.6% glucose, 9.6 μg/ml putrescine, 6.3 ng/ml progesterone, 5.2 ng/ml sodium selenite, 0.02 mg/ml insulin, 0.1 mg/ml transferrin, 2 μg/ml heparin (all from Sigma-Aldrich, Rehovot, Israel), fibroblast growth factor-2 (human recombinant, 20 ng/ml), and epidermal growth factor (human recombinant, 20 ng/ml; both from Peprotech, Rocky Hill, N.J.)]. Spheres were passaged every 4-6 days and replated as single cells. Green fluorescent protein (GFP)-expressing NPCs were obtained as previously described (Pluchino et al., 2003).
(lii) Primary microglial culture. Brains from neonatal (P0-P1) C57B1/6J mice were stripped of their meninges and minced with scissors under a dissecting microscope (Zeiss, Stemi DV4, Germany) in Leibovitz-15 medium (Biological Industries, Kibbutz Beit Ha-Emek, Israel). […]

Test [2] deals with microglia. Kind of test: TNF-α and IGF-I expression in treated microglia (RT-PCR, Q-PCR, immunocytochemistry). The format is cell-based, mouse. As for the experimental part: (v) RNA purification, cDNA synthesis, and reverse-transcription PCR analysis. Cells were lysed with TRI reagent (MRC, Cincinnati, Ohio), and total cellular RNA was purified from lysates using the RNeasy kit (Qiagen, Hilden, Germany) according to the manufacturer's instructions. Residual genomic DNA was removed during the purification process by incubation with RNase-free DNase (Qiagen). RNA was stored in RNase-free water (Qiagen) at −80° C. RNA (1 μg) was converted to cDNA using SuperScript II ([…], Madison, Wis.), as recommended by the manufacturer. The cDNA mixture was diluted 1:5 with PCR-grade water.
We assayed the expression of specific mRNAs using semi-quantitative reverse transcription PCR(RT-PCR) with selected gene-specific primer pairs, using OLIGO v6.4 (Molecular Biology Insights, Cascade, Colo.).
The RT-PCR reactions were carried out using 1 μg of cDNA, […] of each primer, and ReadyMix PCR Master Mix (ABgene, Epsom, UK) in 30-μl reactions. PCR reactions were carried out in an Eppendorf PCR system with cycles (usually 25-30) of 95° C. for 30 s, 60° C. for 1 min, 72° C. for 1 min, and 72° C. for 5 min, and then kept at 4° C. As an internal standard for the amount of cDNA synthesized, we used β-actin mRNA. PCR products were subjected to agarose gel analysis and visualized by ethidium bromide staining. Signals were quantified using a Gel-Pro analyzer 3.1 (Media Cybernetics).
(xxiv) Real-time quantitative PCR analysis. Total cellular RNA purification and cDNA synthesis was performed as described in section (v) of Example 1 above. We assayed the expression of specific mRNAs using real-time quantitative PCR (Q-PCR) with selected gene-specific primer pairs. Q-PCR reactions were performed with a high-speed thermal cycler (LightCycler; Roche Diagnostics), and the product was detected by FastStart Master SYBR Green I (Roche Molecular Biochemicals) according to the manufacturer's instructions. The amplification cycle was 95° C. for 10 s, 60° C. for 5 s, and 72° C. for 10 s. The primers used were: […]

On to IFN-γ, for which the “GFP^+/βIIIT^+ cells (neurogenesis) with microglia activated by the agent” value in test [1] is “dramatic”. The “expression of IGF-I in microglia (Q-PCR)” value is “no effect” in test [2] (10 ng/ml, 24 h) and “completely arrested” in test [2] (100 ng/ml, 24 h). Moreover, the “IGF-I production/expression by microglia” value in test [2] (RT-PCR time course and immunocytochemistry, IL-4 10 ng/ml, IFN-γ 20 ng/ml, LPS 100 ng/ml) was “down-regulation of IGF-I”. The “TNF-α production by microglia” value in test [2] (RT-PCR time course, IFN-γ 20 ng/ml) is given as “transient increase”. The “TNF-α production in microglia (Q-PCR)” value in test [2] (high-dose IFN-γ (100 ng/ml), 24 h) is “induced”.

The values are drawn from US20090010873A1, “Methods of Cell Therapy, Neurogenesis and Oligodendrogenesis” (YEDA RESEARCH AND DEVELOPMENT CO. LTD., priority 2004, published 2009).
